Reference: patent US20100218416A1, “HYDROXYMETHYLFURFURAL ETHERS FROM SUGARS OR HMF AND BRANCHED ALCOHOLS” (FURANIX TECHNOLOGIES B.V., priority 2007, published 2010)
Where two headings read alike, the source gives them in different places.

Experiments:
[1] = Fuel solubility: miscibility in blends with commercial diesel; type: physicochemical
Text: Fuel solubility is a primary concern for diesel fuel applications. Not all highly polar oxygenates have good solubility in the current commercial diesel fuels.
The engine is run stationary with regular diesel initially, after which the fuel supply is switched to the 40 vol % tBMF-diesel blend.

[2] = Oxidation stability of blend with additive free diesel fuel (NF en ISO 12205); type: physicochemical; details: 0.1 vol % blend with additive free diesel fuel
Experimental: Likewise, oxygenated fuel additives, certainly when containing an aldehyde functional group, often reduce the oxidation stability of the base diesel fuel. A 0.1 vol % blend of tBMF with additive free diesel fuel was prepared at an outside laboratory for oxidation stability determination according to NF en ISO 12205 certified methods.

Compound: CCOCc1ccc(C=O)o1 [EMF, ethoxymethylfurfural, reference compound]
- miscibility with commercial diesel ([1]; 5 vol % blend with commercial diesel): completely miscible
- miscibility with commercial diesel ([1]; 25 vol % blend with commercial diesel): phase separation occurs
- miscibility with commercial diesel ([1]; 40 vol % blend with commercial diesel): phase separation occurs

Compound: CC(C)(C)OCc1ccc(C=O)o1 [tBMF, 5-(tert-Butoxymethyl)furfural]
- miscibility with commercial diesel [1]: completely miscible
- mixing or flocculation problems [1]: does not yield any mixing or flocculation problems
- oxidation stability versus reference additive-free diesel [2]: same oxidation stability
